In the supplement of paper PMC10307832:

Legend:
Assay in all cases: relative viability (nuclei count vs DMSO), 5 days (fraction); higher = more cells survive
MLN4924 + AZD7762 = compound: NS(=O)(=O)OC[C@@H]1C[C@@H](n2ccc3c(N[C@H]4CCc5ccccc54)ncnc32)C[C@@H]1O [MLN4924] + NC(=O)Nc1cc(-c2cccc(F)c2)sc1C(=O)N[C@H]1CCCNC1 [AZD7762] (partner 0.2 µM)
Procedure, shortened: (§1)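 Lung cancer cell lines, seeded in 1536-well plates, were treated the following day by pin tool with a single drug or with five library-drug doses (not always all listed) in √10 steps on top of a fixed anchor-drug dose. Cells were fixed and nuclei stained in one step after 5 days, and nuclei were counted. Relative viability is the nuclei count for treated wells divided by that for vehicle wells, reported as medians of duplicate plates.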

MLN4924 + Trametinib = compound: NS(=O)(=O)OC[C@@H]1C[C@@H](n2ccc3c(N[C@H]4CCc5ccccc54)ncnc32)C[C@@H]1O [MLN4924] + CC(=O)Nc1cccc(-n2c(=O)n(C3CC3)c(=O)c3c(Nc4ccc(I)cc4F)n(C)c(=O)c(C)c32)c1 [Trametinib] (partner 0.02 µM)
Procedure, shortened: as §1

Carboplatin + Pictilisib = compound: C1CC(C1)(C(=O)O)C(=O)O.[NH2-].[NH2-].[Pt+2] [Carboplatin] + CS(=O)(=O)N1CCN(Cc2cc3nc(-c4cccc5[nH]ncc45)nc(N4CCOCC4)c3s2)CC1 [Pictilisib] (partner 1 µM)
Procedure, shortened: as §1

MLN4924 + Palbociclib = compound: NS(=O)(=O)OC[C@@H]1C[C@@H](n2ccc3c(N[C@H]4CCc5ccccc54)ncnc32)C[C@@H]1O [MLN4924] + CC(=O)c1c(C)c2cnc(Nc3ccc(N4CCNCC4)cn3)nc2n(C2CCCC2)c1=O [Palbociclib] (partner 0.5 µM)
Procedure, shortened: as §1

Cell Line | relative viability (MLN4924 + AZD7762; first compound 0.04 µM) | relative viability (MLN4924 + AZD7762; first compound 0.1265 µM) | relative viability (MLN4924 + AZD7762; first compound 0.4 µM) | relative viability (MLN4924 + AZD7762; first compound 1.265 µM) | relative viability (MLN4924 + AZD7762; first compound 4 µM) | relative viability (MLN4924 + Trametinib; first compound 0.04 µM) | relative viability (MLN4924 + Trametinib; first compound 0.1265 µM) | relative viability (MLN4924 + Trametinib; first compound 0.4 µM) | relative viability (MLN4924 + Trametinib; first compound 1.265 µM) | relative viability (MLN4924 + Trametinib; first compound 4 µM) | relative viability (Carboplatin + Pictilisib; first compound 0.08 µM) | relative viability (Carboplatin + Pictilisib; first compound 0.253 µM) | relative viability (Carboplatin + Pictilisib; first compound 0.8 µM) | relative viability (Carboplatin + Pictilisib; first compound 2.53 µM) | relative viability (Carboplatin + Pictilisib; first compound 8 µM) | relative viability (MLN4924 + Palbociclib; first compound 0.04 µM) | relative viability (MLN4924 + Palbociclib; first compound 0.1265 µM) | relative viability (MLN4924 + Palbociclib; first compound 0.4 µM) | relative viability (MLN4924 + Palbociclib; first compound 1.265 µM) | relative viability (MLN4924 + Palbociclib; first compound 4 µM)
201T | 0.822 | 0.624 | 0.391 | 0.235 | 0.242 | 0.786 | 0.676 | 0.523 | 0.3 | 0.322 | 0.69 | 0.667 | 0.736 | 0.684 | 0.634 | 0.395 | 0.353 | 0.354 | 0.219 | 0.26
A549 |  |  |  |  |  |  |  |  |  |  | 0.579 | 0.51 | 0.527 | 0.459 | 0.125 |  |  |  |  | 
A-427 | 0.502 | 0.324 | 0.366 | 0.172 | 0.217 | 0.612 | 0.477 | 0.334 | 0.271 | 0.263 | 0.773 | 0.768 | 0.629 | 0.694 | 0.732 | 0.381 | 0.339 | 0.321 | 0.29 | 0.282
ABC-1 | 0.985 | 1.17 | 0.52 | 0.23 | 0.258 |  |  |  |  |  | 0.749 | 0.783 | 0.782 | 0.68 | 0.535 | 1 | 1.02 | 0.695 | 0.316 | 0.498
BEN | 0.66 | 0.76 | 0.561 | 0.321 | 0.264 | 1 | 0.733 | 0.548 | 0.372 | 0.287 | 0.69 | 0.587 | 0.515 | 0.525 | 0.609 | 0.402 | 0.411 | 0.374 | 0.285 | 0.222
CAL-12T | 0.522 | 0.514 | 0.365 | 0.274 | 0.247 | 0.373 | 0.371 | 0.269 | 0.279 | 0.158 | 0.484 | 0.398 | 0.345 | 0.376 | 0.486 | 0.403 | 0.254 | 0.161 | 0.122 | 0.182
COR-L23 |  |  |  |  |  | 0.633 | 0.683 | 0.416 | 0.162 | 0.122 | 0.933 | 0.782 | 0.735 | 0.512 | 0.253 | 0.267 | 0.3 | 0.215 | 0.0984 | 0.105
COR-L 105 |  |  |  |  |  | 0.433 | 0.417 | 0.422 | 0.3 | 0.339 | 0.403 | 0.391 | 0.422 | 0.427 | 0.34 | 0.414 | 0.395 | 0.337 | 0.321 | 0.34
Calu-6 |  |  |  |  |  |  |  |  |  |  | 0.914 | 0.906 | 0.823 | 0.739 | 0.486 |  |  |  |  | 
ChaGo-K-1 | 0.861 | 0.701 | 0.508 | 0.193 | 0.159 | 0.763 | 0.411 | 0.392 | 0.186 | 0.174 | 1.01 | 0.713 | 0.615 | 0.463 | 0.376 | 0.75 | 0.419 | 0.365 | 0.184 | 0.159
EBC-1 |  |  |  |  |  |  |  |  |  |  | 0.392 | 0.344 | 0.363 | 0.365 | 0.358 |  |  |  |  | 
